Assay [1] addresses human full-length recombinant HPK1 (Homo sapiens (Human), UniProt Q92918). Put plainly: HPK1 biochemical enzyme assay, microfluidic mobility shift assay (MSA). The settings on record: read-out: HPK1 Enzyme Assay_Ki. As for the experimental part:
HPK1 enzyme inhibition was measured using a microfluidic mobility shift assay (MSA). […] The reactions were conducted for 60 min at 37° C., stopped by the addition of 50 μL of 0.015 M EDTA, pH 8, and the extent of reactions (˜15-20% conversion with no inhibitor) was determined after electrophoretic separation of the fluorescently labeled peptide substrate and phosphorylated product on an LabChip EZ Reader II (PerkinElmer, Inc., Waltham, Mass.). […]

Assay [2] deals with phospho-SLP-76 (Ser376) in Jurkat cells. Put plainly: Phospho-SLP-76 (Ser376) Homogeneous Time Resolved Fluorescence (HTRF) assay in Jurkat cells. In kind it is cell-based. Conditions: Homo sapiens, read-out: SLP76 Assay_IC50. The procedure: Jurkat cells were seeded at 90,000 cells/well in 90 uL of RPMI1640 growth medium containing 10% FBS and incubated at 37° C. with 5% CO2 overnight. The following day, compounds were serially diluted from a 10 mM top dose for an 11-point 3 fold dilution curve in DMSO. Compounds were intermediately diluted 1:100 into growth media prior to diluting 1:10 on cells for final concentration 10 μM to 0.1 nM in 0.1% DMSO. After 30 minutes pre-treatment with compounds, the cells were stimulated using 200 μg/mL of F(ab)2 complexed anti-CD3 (clone UCTH1) for 15 min at 37° C. with 5% CO2. Stimulation was stopped with ice cold PBS and cells were harvested by centrifugation before lysis in Cisbio lysis buffer (Cisbio, Bedford, Mass.). Lysates were transferred to white, low-volume plates containing anti-phospho-SLP-76-Cryptate plus anti-phospho-SLP-76-d2 HTRF antibodies and incubated overnight at room temperature protected from light according to the manufacturer's protocol (Cisbio, Bedford, Mass.). HTRF was measured on a Perkin Elmer Envision and IC50 values were calculated by concentration-response curve fitting utilizing four-parameter nonlinear regression analyses.
A general note: TR-FRET usually uses a lanthanide donor and a delayed reading to cut background.

Where [3] appears, read: mobility shift assay, 75 μM ATP, Morrison equation, tight-binding competitive inhibition.
Where [4] appears, read: 30 min pre-treatment, anti-CD3 stimulation 15 min, HTRF.
Setting [5] is: Phospho-SLP-76 (Ser376) HTRF, anti-CD3 stimulation.

Like-named read-outs stand apart in the source and are kept apart here.

Sequence of human full-length recombinant HPK1 (Q92918 whole entry): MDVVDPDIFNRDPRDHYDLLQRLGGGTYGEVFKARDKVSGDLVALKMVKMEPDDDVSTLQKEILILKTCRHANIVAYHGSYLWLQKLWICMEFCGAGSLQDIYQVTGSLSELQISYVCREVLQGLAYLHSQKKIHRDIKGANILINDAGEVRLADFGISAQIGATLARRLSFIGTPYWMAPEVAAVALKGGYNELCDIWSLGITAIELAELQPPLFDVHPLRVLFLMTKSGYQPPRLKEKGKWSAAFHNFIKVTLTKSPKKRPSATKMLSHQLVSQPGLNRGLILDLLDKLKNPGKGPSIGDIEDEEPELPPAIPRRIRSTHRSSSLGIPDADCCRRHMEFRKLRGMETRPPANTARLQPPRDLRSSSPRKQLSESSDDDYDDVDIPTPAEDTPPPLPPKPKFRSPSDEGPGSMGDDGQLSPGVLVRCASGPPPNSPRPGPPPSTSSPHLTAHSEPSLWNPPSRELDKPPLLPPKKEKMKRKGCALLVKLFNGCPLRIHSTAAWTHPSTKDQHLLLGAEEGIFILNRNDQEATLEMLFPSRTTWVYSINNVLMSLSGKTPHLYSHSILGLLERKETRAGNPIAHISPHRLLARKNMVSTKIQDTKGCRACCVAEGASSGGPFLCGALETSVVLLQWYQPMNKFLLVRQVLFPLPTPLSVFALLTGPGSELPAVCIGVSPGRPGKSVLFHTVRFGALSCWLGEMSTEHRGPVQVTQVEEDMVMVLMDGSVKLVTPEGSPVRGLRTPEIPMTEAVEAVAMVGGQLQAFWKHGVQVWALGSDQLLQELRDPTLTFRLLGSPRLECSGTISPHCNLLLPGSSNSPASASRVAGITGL

Take `CNCc1nc(N)cc2c1CN(c1cccc(-c3nncn3C(C)C)n1)C2=O` [Example 50, 6-amino-4-[(methylamino)methyl]-2-{6-[4-(propan-2-yl)-4H-1,2,4-triazol-3-yl]pyridin-2-yl}-2,3-dihydro-1H-pyrrolo[3,4-c]pyridin-1-one]: the Ki in assay [1] (setting [3]) stood at 0.14 nM. The IC50 in assay [2] (setting [4]) worked out at 94 nM.

For `CCn1c(C)nnc1-c1cccc(N2Cc3c(cc(N4CCCC4(C)C)nc3CN)C2=O)n1` [Example 154], the Ki in assay [1] (HPK1 mobility shift assay) amounted to 0.15 nM. In addition, the IC50 in assay [2] (setting [5]) stood at 151 nM.

On to `C[C@@H](CC(F)(F)F)n1cnnc1-c1cccc(N2Cc3c(cc(N(C)C)nc3CN)C2=O)n1` [Example 13, 4-(aminomethyl)-6-(dimethylamino)-2-(6-{4-[(2S)-4,4,4-trifluorobutan-2-yl]-4H-1,2,4-triazol-3-yl}pyridin-2-yl)-2,3-dihydro-1H-pyrrolo[3,4-c]pyridin-1-one], for which the Ki in assay [1] (setting [3]) was below 0.08 nM. Moreover, the IC50 in assay [2] (setting [4]) amounted to 85 nM.

For the compound `CCCn1cnnc1-c1cccc(N2Cc3c(cc(N4CCC[C@@H]4C(F)(F)F)nc3CNC)C2=O)n1` [Example 120, 4-[(methylamino)methyl]-2-[6-(4-propyl-4H-1,2,4-triazol-3-yl)pyridin-2-yl]-6-[(2R)-2-(trifluoromethyl)pyrrolidin-1-yl]-2,3-dihydro-1H-pyrrolo[3,4-c]pyridin-1-one], in assay [1] (HPK1 mobility shift assay), the Ki was below 0.09 nM. Moreover, in assay [2] (setting [5]), the IC50 came to 56 nM.

In the case of `CCn1c(C)nnc1-c1cccc(N2Cc3c(cc(N4CCC[C@H]4C)nc3CN)C2=O)n1` [Example 61, 4-(aminomethyl)-2-[6-(4-ethyl-5-methyl-4H-1,2,4-triazol-3-yl)pyridin-2-yl]-6-[(2R)-2-methylpyrrolidin-1-yl]-2,3-dihydro-1H-pyrrolo[3,4-c]pyridin-1-one], in assay [1] (setting [3]), the Ki came out at 0.18 nM. The IC50 in assay [2] (setting [4]) came to 88 nM.

`CC[C@H](CC(F)(F)F)n1cnnc1-c1cccc(N2Cc3c(cc(N(C)C(C)C)nc3CNC)C2=O)n1` (single isomer, unassigned) [Example 73, 4-[(methylamino)methyl]-6-[methyl(propan-2-yl)amino]-2-(6-{4-[(3ξ)-1,1,1-trifluoropentan-3-yl]-4H-1,2,4-triazol-3-yl}pyridin-2-yl)-2,3-dihydro-1H-pyrrolo[3,4-c]pyridin-1-one]: the Ki in assay [1] (HPK1 mobility shift assay) stood at 0.22 nM. Besides, the IC50 in assay [2] (setting [5]) was determined as 61 nM.

`CCC(CC)n1cnnc1-c1cccc(N2Cc3c(cc(N4CCC[C@@H]4C)nc3CNC)C2=O)n1` [Example 138, 4-[(methylamino)methyl]-6-[(2S)-2-methylpyrrolidin-1-yl]-2-{6-[4-(pentan-3-yl)-4H-1,2,4-triazol-3-yl]pyridin-2-yl}-2,3-dihydro-1H-pyrrolo[3,4-c]pyridin-1-one]: the Ki in assay [1] (HPK1 mobility shift assay) amounted to 0.09 nM. In addition, the IC50 in assay [2] (setting [5]) is above 10000 nM.

In the case of `CNCc1nc(N(C)C)cc2c1CN(c1cccc(-c3nncn3CC(C)C)n1)C2=O` [Example 177], the Ki in assay [1] (HPK1 mobility shift assay) is 0.26 nM. Further, the IC50 in assay [2] (setting [5]) worked out at 152 nM.

For `CCN(C)c1cc2c(c(CN)n1)CN(c1cccc(-c3nnc(C)n3C(C)C)n1)C2=O` [Example 160], the Ki in assay [1] (HPK1 mobility shift assay) came to 0.48 nM. The IC50 in assay [2] (setting [5]) is 272 nM.

Take `CCN(c1cc2c(c(CN)n1)CN(c1cccc(-c3nncn3CC)n1)C2=O)C(C)C` [Example 141, 4-(aminomethyl)-6-[ethyl(propan-2-yl)amino]-2-[6-(4-ethyl-4H-1,2,4-triazol-3-yl)pyridin-2-yl]-2,3-dihydro-1H-pyrrolo[3,4-c]pyridin-1-one]: the Ki in assay [1] (HPK1 mobility shift assay) was determined as 0.74 nM. Also, the IC50 in assay [2] (setting [5]) was 122 nM.

For the compound `CCCn1cnnc1-c1cccc(N2Cc3c(cc(C4(C)CC4)nc3CN)C2=O)n1` [Example 90, 4-(aminomethyl)-6-(1-methylcyclopropyl)-2-[6-(4-propyl-4H-1,2,4-triazol-3-yl)pyridin-2-yl]-2,3-dihydro-1H-pyrrolo[3,4-c]pyridin-1-one], in assay [1] (HPK1 mobility shift assay), the Ki turned out to be 1.46 nM. Moreover, the IC50 in assay [2] (setting [5]) came to 694 nM.

Take `CCn1c(C)nnc1-c1cccc(N2Cc3c(cc(N(C)C(C)C)nc3CN)C2=O)n1` [Example 158]: in assay [1] (HPK1 mobility shift assay), the Ki turned out to be 0.38 nM. Besides, the IC50 in assay [2] (setting [5]) is 83 nM.

For `C[C@H]1COC(=O)N1c1cccc(N2Cc3c(cc(N4CCC4)nc3CN)C2=O)n1` [Example 44, 4-(aminomethyl)-6-(azetidin-1-yl)-2-{6-[(4S)-4-methyl-2-oxo-1,3-oxazolidin-3-yl]pyridin-2-yl}-2,3-dihydro-1H-pyrrolo[3,4-c]pyridin-1-one], in assay [1] (setting [3]), the Ki was 0.4 nM. Moreover, the IC50 in assay [2] (setting [4]) stood at 244 nM.

`CNCc1nc(N(C)C(C)C)cc2c1CN(c1cccc(N3C(=O)OC[C@@H]3C)n1)C2=O` [Example 74, 4-[(methylamino)methyl]-2-{6-[(4S)-4-methyl-2-oxo-1,3-oxazolidin-3-yl]pyridin-2-yl}-6-[methyl(propan-2-yl)amino]-2,3-dihydro-1H-pyrrolo[3,4-c]pyridin-1-one]: the Ki in assay [1] (HPK1 mobility shift assay) worked out at 0.06 nM. Further, in assay [2] (setting [5]), the IC50 was 77 nM.

Regarding `CCN(C)c1cc2c(c(CN)n1)CN(c1cccc(-c3nncn3CC)n1)C2=O` [Example 60, 4-(aminomethyl)-6-[ethyl(methyl)amino]-2-[6-(4-ethyl-4H-1,2,4-triazol-3-yl)pyridin-2-yl]-2,3-dihydro-1H-pyrrolo[3,4-c]pyridin-1-one], the Ki in assay [1] (setting [3]) is 0.17 nM. Also, the IC50 in assay [2] (setting [4]) was found to be 70 nM.

As to `CNCc1nc(C(C)(C)C)cc2c1CN(c1cccc(-c3nncn3C(C)C)n1)C2=O` [Example 29, 6-tert-butyl-4-[(methylamino)methyl]-2-{6-[4-(propan-2-yl)-4H-1,2,4-triazol-3-yl]pyridin-2-yl}-2,3-dihydro-1H-pyrrolo[3,4-c]pyridin-1-one], the Ki in assay [1] (setting [3]) came to 3.2 nM. Besides, the IC50 in assay [2] (setting [4]) amounted to 396 nM.

As to `CNCc1nc(N2[C@H](C)C[C@H]2C)cc2c1CN(c1cccc(-c3nncn3C(C)C)n1)C2=O` [Example 28, 6-[(2R,4R)-2,4-dimethylazetidin-1-yl]-4-[(methylamino)methyl]-2-{6-[4-(propan-2-yl)-4H-1,2,4-triazol-3-yl]pyridin-2-yl}-2,3-dihydro-1H-pyrrolo[3,4-c]pyridin-1-one], the Ki in assay [1] (setting [3]) was 0.41 nM. For the same compound, in assay [2] (setting [4]), the IC50 worked out at 119 nM.

Take `CC(C)n1cnnc1-c1cccc(N2Cc3c(cc(N(C)C)nc3CN)C2=O)n1` [Example 12, 4-(aminomethyl)-6-(dimethylamino)-2-{6-[4-(propan-2-yl)-4H-1,2,4-triazol-3-yl]pyridin-2-yl}-2,3-dihydro-1H-pyrrolo[3,4-c]pyridin-1-one]: the Ki in assay [1] (setting [3]) was 0.2 nM. The IC50 in assay [2] (setting [4]) turned out to be 155 nM.

Regarding `CCn1c(C)nnc1-c1cccc(N2Cc3c(cc(N4CCC[C@@H]4C)nc3CN)C2=O)n1` [Example 157], the Ki in assay [1] (HPK1 mobility shift assay) came out at 0.23 nM. Moreover, the IC50 in assay [2] (setting [5]) stood at 85 nM.

`CCn1c(C)nnc1-c1cccc(N2Cc3c(cc(N4[C@H](C)CC[C@H]4C)nc3CN)C2=O)n1` [Example 168]: in assay [1] (HPK1 mobility shift assay), the Ki amounted to 0.76 nM. Further, the IC50 in assay [2] (setting [5]) was determined as 300 nM.

`CCN(C)c1cc2c(c(CNC)n1)CN(c1cccc(-c3nncn3C(C)C)n1)C2=O` [Example 48, 6-[ethyl(methyl)amino]-4-[(methylamino)methyl]-2-{6-[4-(propan-2-yl)-4H-1,2,4-triazol-3-yl]pyridin-2-yl}-2,3-dihydro-1H-pyrrolo[3,4-c]pyridin-1-one]: in assay [1] (setting [3]), the Ki worked out at 0.14 nM. Besides, the IC50 in assay [2] (setting [4]) was determined as 94 nM.

Source of the values: patent US11142525B2 (Pfizer Inc., priority 2018, dated 2021).
